Starred links: 1 amine or outer side, 2 acyl side, 3 side chain; linkers in the order of their positions; H or OH if unused. Positions of bridges follow the written chain, without caps; N, C: chain ends. Non-standard residues stand in square brackets, D forms with d. Residues, ends and D or L forms follow the SMILES beside them. Groups on a side chain read outwards from the residue. *: point of attachment. Ala(piperidin-4-yl) = O=C([C@H](CC1CCN([*:3])CC1)N[*:1])[*:2]; X10 = C[C@@H](c1c[nH]c2ccc(F)cc12)[C@H](N[*:1])C(=O)[*:2]; DOTA = O=C(O)CN1CCN(CC(=O)O)CCN(CC(=O)*)CCN(CC(=O)O)CC1; Trp(5-F) = N[C@@H](Cc1c[nH]c2ccc(F)cc12)C(=O)O; γGlu = O=C(O)[C@H](CCC(=O)[*:2])N[*:1]; 1Nal = N[C@@H](Cc1cccc2ccccc12)C(=O)O; Ala(4-THP) = N[C@@H](CC1CCOCC1)C(=O)O; X3 = O=C([C@H](CCC1CCC1)N[*:1])[*:2]; Val(3-OH) = CC(C)(O)[C@H](N)C(=O)O; hCha = N[C@@H](CCC1CCCCC1)C(=O)O; PEG4 = NCCOCCOCCOCCOCCC(=O)O; Suc = O=C(CCC(=O)[*:2])[*:1]; Tle = CC(C)(C)[C@H](N)C(=O)O; hLeu = CC(C)CC[C@H](N)C(=O)O
Molecular target: T1, human 4lg B7-H3 (Homo sapiens, UniProt Q5ZPR3)
T1 sequence (Q5ZPR3 29-534): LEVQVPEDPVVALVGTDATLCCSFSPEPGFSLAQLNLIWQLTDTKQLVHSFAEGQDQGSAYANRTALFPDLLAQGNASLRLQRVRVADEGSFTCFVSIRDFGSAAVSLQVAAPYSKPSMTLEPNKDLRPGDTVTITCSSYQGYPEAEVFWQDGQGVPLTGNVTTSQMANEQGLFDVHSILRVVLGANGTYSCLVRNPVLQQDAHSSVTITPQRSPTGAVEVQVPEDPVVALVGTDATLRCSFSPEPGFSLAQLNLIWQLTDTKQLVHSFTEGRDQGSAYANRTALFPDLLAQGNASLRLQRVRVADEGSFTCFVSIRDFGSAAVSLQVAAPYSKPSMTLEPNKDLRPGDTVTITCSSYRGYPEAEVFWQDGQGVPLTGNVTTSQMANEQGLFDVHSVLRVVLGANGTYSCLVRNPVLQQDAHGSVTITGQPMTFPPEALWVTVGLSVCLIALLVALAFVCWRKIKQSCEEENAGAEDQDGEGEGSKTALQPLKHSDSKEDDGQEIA
Assay: Affinity determination by surface plasmon resonance (SPR) to 4Ig B7-H3
Conditions: SPR KD—37° C., 4Ig B7-H3; 37° C. flow cell temperature

SMILES | Kd [nM]
CC(=O)N[C@@H](CCC(C)C)C(=O)N[C@@H](Cc1ccc(O)cc1)C(=O)N[C@H]1CSSC[C@@H](C(=O)N[C@@H](Cc2cccc3ccccc23)C(=O)N[C@@H](Cc2ccccc2)C(=O)N[C@H](C(=O)N[C@H](CCCCNC(=O)CC[C@H](NC(=O)CN2CCN(CC(=O)O)CCN(CC(=O)O)CCN(CC(=O)O)CC2)C(=O)O)C(=O)O)C(C)(C)O)NC(=O)[C@H](Cc2ccc(O)cc2)NC(=O)[C@H](C(C)C)NC(=O)[C@H](CC(=O)O)NC(=O)[C@H](CC2CCOCC2)NC(=O)[C@H](CC2CCNCC2)NC(=O)CNC(=O)[C@H](C(C)(C)C)NC1=O [compound 441, Ac-hLeu-Y-C-Tbg-G-PipAla-ThpA-D-V-Y-C-1Nal-F-hydroxyVal-dLys(gGlu-DOTA)-COOH] (Ac-[hLeu]YC[Tle]G[Ala(piperidin-4-yl)][Ala(4-THP)]DVYC[1Nal]F[Val(3-OH)][dK]([γGlu-DOTA])-OH; disulfide 3-11) | < 1
CC(=O)N[C@@H](CCC1CCCCC1)C(=O)N[C@@H](Cc1ccc(O)cc1)C(=O)N[C@H]1CSSC[C@@H](C(=O)N[C@@H](Cc2c[nH]c3ccc(F)cc23)C(=O)N[C@@H](Cc2ccccc2)C(=O)N[C@H](C(=O)N[C@H](CCCCNC(=O)CN2CCN(CC(=O)O)CCN(CC(=O)O)CCN(CC(=O)O)CC2)C(=O)O)C(C)(C)O)NC(=O)[C@H](Cc2ccc(O)cc2)NC(=O)[C@H](C(C)C)NC(=O)[C@H](CC(=O)O)NC(=O)[C@H](CC2CCOCC2)NC(=O)[C@H](CC2CCNCC2)NC(=O)CNC(=O)[C@H](C(C)(C)C)NC1=O [compound 442, Ac-hCha-Y-C-Tbg-G-PipAla-ThpA-D-V-Y-C-5FW-F-hydroxyVal-dLys(DOTA)-COOH] (Ac-[hCha]YC[Tle]G[Ala(piperidin-4-yl)][Ala(4-THP)]DVYC[Trp(5-F)]F[Val(3-OH)][dK](DOTA)-OH; disulfide 3-11) | < 1
CC(=O)N[C@@H](CCC1CCC1)C(=O)N[C@@H](Cc1ccc(O)cc1)C(=O)N[C@H]1CSSC[C@@H](C(=O)N[C@@H](Cc2c[nH]c3ccc(F)cc23)C(=O)N[C@@H](Cc2ccccc2)C(=O)N[C@H](C(=O)N[C@H](CCCCNC(=O)CN2CCN(CC(=O)O)CCN(CC(=O)O)CCN(CC(=O)O)CC2)C(=O)O)C(C)(C)O)NC(=O)[C@H](Cc2ccc(O)cc2)NC(=O)[C@H](C(C)C)NC(=O)[C@H](CC(=O)O)NC(=O)[C@H](CC2CCOCC2)NC(=O)[C@H](CC2CCNCC2)NC(=O)CNC(=O)[C@H](C(C)(C)C)NC1=O [compound 443, Ac-hCba-Y-C-Tbg-G-PipAla-ThpA-D-V-Y-C-5FW-F-hydroxyVal-dLys(DOTA)-COOH] (Ac-[X3]YC[Tle]G[Ala(piperidin-4-yl)][Ala(4-THP)]DVYC[Trp(5-F)]F[Val(3-OH)][dK](DOTA)-OH; disulfide 3-11) | < 1
CC(=O)N[C@@H](CCC(C)C)C(=O)N[C@@H](Cc1ccc(O)cc1)C(=O)N[C@H]1CSSC[C@@H](C(=O)N[C@@H](Cc2c[nH]c3ccc(F)cc23)C(=O)N[C@@H](Cc2ccccc2)C(=O)N[C@H](C(N)=O)C(C)(C)O)NC(=O)[C@H](Cc2ccc(O)cc2)NC(=O)[C@H](C(C)C)NC(=O)[C@H](CC(=O)O)NC(=O)[C@H](CC2CCN(C(=O)CCOCCOCCOCCOCCNC(=O)CN3CCN(CC(=O)O)CCN(CC(=O)O)CCN(CC(=O)O)CC3)CC2)NC(=O)[C@H](CC2CCNCC2)NC(=O)CNC(=O)[C@H](C(C)(C)C)NC1=O [compound 445, Ac-hLeu-Y-C-Tbg-G-PipAla-Pip(PEG4-DOTA)Ala-D-V-Y-C-5FW-F-hydroxyVal-CONH2] (Ac-[hLeu]YC[Tle]G[Ala(piperidin-4-yl)][Ala(piperidin-4-yl)]([PEG4-DOTA])DVYC[Trp(5-F)]F[Val(3-OH)]-NH2; disulfide 3-11) | < 1
CC(=O)N[C@@H](CCC(C)C)C(=O)N[C@@H](Cc1ccc(O)cc1)C(=O)N[C@H]1CSSC[C@@H](C(=O)N[C@@H](Cc2c[nH]c3ccc(F)cc23)C(=O)N[C@@H](Cc2ccccc2)C(=O)N[C@H](C(=O)N[C@H](CO)C(N)=O)C(C)(C)O)NC(=O)[C@H](Cc2ccc(O)cc2)NC(=O)[C@H](C(C)C)NC(=O)[C@H](CC(=O)O)NC(=O)[C@H](CC2CCN(C(=O)CCOCCOCCOCCOCCNC(=O)CN3CCN(CC(=O)O)CCN(CC(=O)O)CCN(CC(=O)O)CC3)CC2)NC(=O)[C@H](CC2CCNCC2)NC(=O)CNC(=O)[C@H](C(C)(C)C)NC1=O [compound 446, Ac-hLeu-Y-C-Tbg-G-PipAla-Pip(PEG4-DOTA)Ala-D-V-Y-C-5FW-F-hydroxyVal-dSer-CONH2] (Ac-[hLeu]YC[Tle]G[Ala(piperidin-4-yl)][Ala(piperidin-4-yl)]([PEG4-DOTA])DVYC[Trp(5-F)]F[Val(3-OH)][dS]-NH2; disulfide 3-11) | < 1
CC(=O)N[C@@H](CCC(C)C)C(=O)N[C@@H](Cc1ccc(O)cc1)C(=O)N[C@H]1CSSC[C@@H](C(=O)N[C@@H](Cc2c[nH]c3ccc(F)cc23)C(=O)N[C@@H](Cc2ccccc2)C(=O)N[C@H](C(=O)N[C@H](CCC(=O)O)C(N)=O)C(C)(C)O)NC(=O)[C@H](Cc2ccc(O)cc2)NC(=O)[C@H](C(C)C)NC(=O)[C@H](CC(=O)O)NC(=O)[C@H](CC2CCN(C(=O)CN3CCN(CC(=O)O)CCN(CC(=O)O)CCN(CC(=O)O)CC3)CC2)NC(=O)[C@H](CC2CCNCC2)NC(=O)CNC(=O)[C@H](C(C)(C)C)NC1=O [compound 447, Ac-hLeu-Y-C-Tbg-G-PipAla-Pip(DOTA)Ala-D-V-Y-C-5FW-F-hydroxyVal-dGlu-CONH2] (Ac-[hLeu]YC[Tle]G[Ala(piperidin-4-yl)][Ala(piperidin-4-yl)](DOTA)DVYC[Trp(5-F)]F[Val(3-OH)][dE]-NH2; disulfide 3-11) | < 1
CC(=O)N[C@@H](CCC(C)C)C(=O)N[C@@H](Cc1ccc(O)cc1)C(=O)N[C@H]1CSSC[C@@H](C(=O)N[C@@H](Cc2c[nH]c3ccc(F)cc23)C(=O)N[C@@H](Cc2ccccc2)C(=O)N[C@H](C(=O)N[C@H](CCC(=O)O)C(=O)O)C(C)(C)O)NC(=O)[C@H](Cc2ccc(O)cc2)NC(=O)[C@H](C(C)C)NC(=O)[C@H](CC(=O)O)NC(=O)[C@H](CC2CCN(C(=O)CCOCCOCCOCCOCCNC(=O)CN3CCN(CC(=O)O)CCN(CC(=O)O)CCN(CC(=O)O)CC3)CC2)NC(=O)[C@H](CC2CCNCC2)NC(=O)CNC(=O)[C@H](C(C)(C)C)NC1=O [compound 448, Ac-hLeu-Y-C-Tbg-G-PipAla-Pip(PEG4-DOTA)Ala-D-V-Y-C-5FW-F-hydroxyVal-dGlu-COOH] (Ac-[hLeu]YC[Tle]G[Ala(piperidin-4-yl)][Ala(piperidin-4-yl)]([PEG4-DOTA])DVYC[Trp(5-F)]F[Val(3-OH)][dE]-OH; disulfide 3-11) | < 1
CC(=O)N[C@@H](CCC(C)C)C(=O)N[C@@H](Cc1ccc(O)cc1)C(=O)N[C@H]1CSSC[C@@H](C(=O)N[C@@H](Cc2c[nH]c3ccc(F)cc23)C(=O)N[C@@H](Cc2ccccc2)C(=O)N[C@H](C(=O)N[C@H](CO)C(=O)O)C(C)(C)O)NC(=O)[C@H](Cc2ccc(O)cc2)NC(=O)[C@H](C(C)C)NC(=O)[C@H](CC(=O)O)NC(=O)[C@H](CC2CCN(C(=O)CN3CCN(CC(=O)O)CCN(CC(=O)O)CCN(CC(=O)O)CC3)CC2)NC(=O)[C@H](CC2CCNCC2)NC(=O)CNC(=O)[C@H](C(C)(C)C)NC1=O [compound 449, Ac-hLeu-Y-C-Tbg-G-PipAla-Pip(DOTA)Ala-D-V-Y-C-5FW-F-hydroxyVal-dSer-COOH] (Ac-[hLeu]YC[Tle]G[Ala(piperidin-4-yl)][Ala(piperidin-4-yl)](DOTA)DVYC[Trp(5-F)]F[Val(3-OH)][dS]-OH; disulfide 3-11) | < 1
CC(=O)N[C@@H](CCC(C)C)C(=O)N[C@@H](Cc1ccc(O)cc1)C(=O)N[C@H]1CSSC[C@@H](C(=O)N[C@H](C(=O)N[C@@H](Cc2ccccc2)C(=O)N[C@H](C(=O)N[C@H](CCCCNC(=O)CN2CCN(CC(=O)O)CCN(CC(=O)O)CCN(CC(=O)O)CC2)C(=O)O)C(C)(C)O)[C@@H](C)c2c[nH]c3ccc(F)cc23)NC(=O)[C@H](Cc2ccc(O)cc2)NC(=O)[C@H](C(C)C)NC(=O)[C@H](CC(=O)O)NC(=O)[C@H](CC2CCOCC2)NC(=O)[C@H](CC2CCNCC2)NC(=O)CNC(=O)[C@H](C(C)(C)C)NC1=O [compound 450, Ac-hLeu-Y-C-Tbg-G-PipAla-ThpA-D-V-Y-C-(2S,3S-betaMe-5FW)-F-hydroxyVal-dLys(DOTA)-COOH] (Ac-[hLeu]YC[Tle]G[Ala(piperidin-4-yl)][Ala(4-THP)]DVYC[X10]F[Val(3-OH)][dK](DOTA)-OH; disulfide 3-11) | 1 to 10
CC(C)CC[C@H](NC(=O)CCC(=O)O)C(=O)N[C@@H](Cc1ccc(O)cc1)C(=O)N[C@H]1CSSC[C@@H](C(=O)N[C@@H](Cc2c[nH]c3ccc(F)cc23)C(=O)N[C@@H](Cc2ccccc2)C(=O)N[C@H](C(=O)N[C@H](CCCCNC(=O)CN2CCN(CC(=O)O)CCN(CC(=O)O)CCN(CC(=O)O)CC2)C(=O)O)C(C)(C)O)NC(=O)[C@H](Cc2ccc(O)cc2)NC(=O)[C@H](C(C)C)NC(=O)[C@H](CC(=O)O)NC(=O)[C@H](CC2CCOCC2)NC(=O)[C@H](CC2CCNCC2)NC(=O)CNC(=O)[C@H](C(C)(C)C)NC1=O [compound 451, C4diacid-hLeu-Y-C-Tbg-G-PipAla-ThpA-D-V-Y-C-5FW-F-hydroxyVal-dLys(DOTA)-COOH] (Suc-[hLeu]YC[Tle]G[Ala(piperidin-4-yl)][Ala(4-THP)]DVYC[Trp(5-F)]F[Val(3-OH)][dK](DOTA)-OH; disulfide 3-11) | 1 to 10
